Laboratory results taken from patent US11020340B2, “Compositions containing natural products and use thereof for skin and hair” (Seiberg Consulting, LLC, priority 2017, dated 2021).

Test: ROS-Glo H2O2 assay: removal or elimination of added hydrogen peroxide
Assay type: biochemical
Conditions: for microM H2O2: Table 2A calibration; for microM H2O2 / Hydrogen peroxide levels, Micro Molar H2O2: 30 minutes at room temperature; for Hydrogen peroxide levels, Micro Molar H2O2: Table 2B
Protocol: Broken-up algae powders (two independent batches) and the prototype formulations of Table 1A were evaluated for their biological activity in the removal or elimination of hydrogen peroxide by using the ROS-Glo™ H2O2 assay kit (Promega). The ROS-Glo™ H2O2 assay is a homogeneous, rapid and sensitive luminescent assay that measures the level of hydrogen peroxide directly in cell culture or in defined reactions. This assay allows identification of conditions or test compounds, such as small molecule inhibitors or inducers that alter ROS levels. An H2O2 Substrate is employed that reacts directly with H2O2 to generate a luciferin precursor. Upon addition of ROS-Glo™ Detection Reagent containing Ultra-Glo™ Recombinant Luciferase and Cysteine, the precursor is converted to luciferin by the d-Cysteine, and the produced luciferin reacts with Ultra-Glo™ Recombinant Luciferase to generate a luminescent signal that is proportional to H2O2 concentration. In the current study H2O2 was added into the reaction wells and the H2O2-degrading activity of the test agents, at various concentrations, was evaluated after 30 minutes of exposure at room temperature. Glutathione (GSH) served as a positive control and the luminescence results (RLU) of different GSH concentrations were calibrated to hydrogen peroxide concentrations (see Table 2A).
In a similar study, one batch of broken-up Porphyridium powder was evaluated for the same biological activity before and after gamma irradiation. The gamma irradiation used was considered weak, and ranged from about 5 to about 15 kGy.
A broken-up algae powder preparation was evaluated for biological activity (removal or elimination of hydrogen peroxide) using the ROS-Glo™ H2O2 assay kit (Promega), as described in Example 2. The powder was suspended in water and used “as is” (non-denatured) for the assay, or was heated to 100 C for 30 minutes to achieve a complete denaturation. Upon heating, the preparation changed its color from red/pink to yellow/green or to light yellow/colorless.

## N[C@@H](CCC(=O)N[C@@H](CS)C(=O)NCC(=O)O)C(=O)O [GSH, Glutathione]
GSH 0.025 %
  microM H2O2: 151.69 µM
GSH 0.050 %
  microM H2O2: 105.32 µM
GSH 0.100 %
  microM H2O2: 67.84 µM
GSH 0.200 %
  microM H2O2: 45.76 µM
GSH 0.400 %
  microM H2O2: 14.26 µM
GSH 0.800 %
  microM H2O2: -7.13 µM
GSH 1.000 %
  microM H2O2: -10.27 µM
0.025 % test agent
  Hydrogen peroxide levels, Micro Molar H2O2: 139.566 Micro Molar
0.050 % test agent
  Hydrogen peroxide levels, Micro Molar H2O2: 112.262 Micro Molar
0.100 % test agent
  Hydrogen peroxide levels, Micro Molar H2O2: 76.093 Micro Molar
0.200 % test agent
  Hydrogen peroxide levels, Micro Molar H2O2: 53.453 Micro Molar
0.400 % test agent
  Hydrogen peroxide levels, Micro Molar H2O2: 25.850 Micro Molar
0.800 % test agent
  Hydrogen peroxide levels, Micro Molar H2O2: −6.940 Micro Molar
1.000 % test agent
  Hydrogen peroxide levels, Micro Molar H2O2: −8.278 Micro Molar
Table 2C, 0.0025 % Test/Ref
  Micro Molar H2O2: 58.797 Micro Molar
Table 2C, 0.0050 % Test/Ref
  Micro Molar H2O2: 49.344 Micro Molar
Table 2C, 0.0100 % Test/Ref
  Micro Molar H2O2: 52.736 Micro Molar
Table 2C, 0.0250 % Test/Ref
  Micro Molar H2O2: 41.413 Micro Molar
Table 2C, 0.0500 % Test/Ref
  Micro Molar H2O2: 28.936 Micro Molar
Table 2C, 0.1000 % Test/Ref
  Micro Molar H2O2: 16.548 Micro Molar
Table 2C, 0.2500 % Test/Ref
  Micro Molar H2O2: 6.375 Micro Molar
Table 2C, 0.5000 % Test/Ref
  Micro Molar H2O2: −9.043 Micro Molar
Table 3, 0.025 % test agent
  Micro Molar H2O2: 141.3439 Micro Molar
Table 3, 0.05 % test agent
  Micro Molar H2O2: 98.16 Micro Molar
Table 3, 0.1 % test agent
  Micro Molar H2O2: 53.43 Micro Molar
Table 3, 0.2 % test agent
  Micro Molar H2O2: 10.87 Micro Molar
Table 3, 0.4 % test agent
  Micro Molar H2O2: −14.384 Micro Molar
Table 3, 0.8 % test agent
  Micro Molar H2O2: −14.5708 Micro Molar
